US9963452B2, “Methods, compounds, and compositions for inhibition of ROS” (AUGUSTA PHARMACEUTICALS INC., priority 2013, dated 2018)

How the values were obtained:
EGFR = target: T1, EGFR (Homo sapiens, UniProt P00533); experiment: In vitro EGFR enzymatic reaction assay (HTRF, Cisbio); type: biochemical
T1 construct: ROS or EGFR enzyme, 0.008 ng/ul

ROS = ROS (Homo sapiens, UniProt P08922); experiment: In vitro ROS enzymatic reaction assay (HTRF, Cisbio); type: biochemical; set-up: ROS or EGFR enzyme, 0.008 ng/ul; settings: for inhibition at 5 µM: ROS kinase, compound at 5 uM, read-out: Kinase Inhib. 5 uM (%)
Procedure: The ROS enzymatic reactions were carried out with a high throughput screening platform for phosphor-detection of kinase activity. This platform based on homogeneous time resolved fluorescence (HTRF) technology from Cisbio Bioassays, Inc. (Cisbio). […] The reaction was allowed to proceed for 30 minutes at room temperature. An equal volume of detection buffer was then added to the reaction mix.

[1] = test system: U87 glioblastoma cell line; experiment: In-vitro cell survival assay (Alamar blue), U87; type: cell-based; settings: 24 h; U87, one day after compound addition
Method in brief: (§1)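 Cells seeded at 2-5×10^3 per well, grown 2 days, then exposed to compound at 100, 10 or 1 uM (0.5% DMSO final) for one day. Alamar blue redox dye read as proliferation/viability, normalized to vehicle wells as percent decrease and converted to EC50.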

[2] = test system: LN18 glioblastoma cell line; experiment: In-vitro cell survival assay (Alamar blue), LN18; type: cell-based; settings: Homo sapiens, LN-18, 24 h; LN18, one day after compound addition
Method in brief: as §1

[3] = test system: U118 glioblastoma cell line; experiment: In-vitro cell survival assay (Alamar blue), U118; type: cell-based; settings: 24 h; U118, one day after compound addition
Procedure: Five tumor-derived cell lines were treated with the ROS inhibitor compounds and cell survival was monitored to determine the cancer prohibition effects of the compounds. The cell lines included HeLa, a cervical cancer cell line, and four glioblastoma cell lines U138, U87, LN18, and U118. The basic protocol for the in-vitro cell survival assay is the same for all five cell lines. In particular, the cells were seeded in 96-well plates at 2-5×10^3 cells/well (cell line dependent) in culture medium. The cells were grown for 2 days before the compounds were dissolved in DMSO and added to final concentrations of 100 uM, 10 uM, or 1 uM (DMSO final concentration 0.5%). The cell culture was then assayed one day after the addition of the compounds. The assay used Alamar blue as a redox-sensitive dye that interrogates mitochondrial fitness of cells, and these assays provided a readout for cell proliferation and viability. The raw values were normalized to an average of several vehicle control wells and are presented as percent decrease in proliferation/viability, which is converted to half maximal effective concentration (EC50) values.

[4] = test system: HeLa cervical cancer cell line; experiment: In-vitro cell survival assay (Alamar blue), HeLa; type: cell-based; settings: Homo sapiens, 24 h, one day after compound addition
Method in brief: as §1

[5] = test system: U138 glioblastoma cell line; experiment: In-vitro cell survival assay (Alamar blue), U138; type: cell-based; settings: 24 h; U138, one day after compound addition
Method in brief: as §1

Sequence of ROS (P08922 28-2347): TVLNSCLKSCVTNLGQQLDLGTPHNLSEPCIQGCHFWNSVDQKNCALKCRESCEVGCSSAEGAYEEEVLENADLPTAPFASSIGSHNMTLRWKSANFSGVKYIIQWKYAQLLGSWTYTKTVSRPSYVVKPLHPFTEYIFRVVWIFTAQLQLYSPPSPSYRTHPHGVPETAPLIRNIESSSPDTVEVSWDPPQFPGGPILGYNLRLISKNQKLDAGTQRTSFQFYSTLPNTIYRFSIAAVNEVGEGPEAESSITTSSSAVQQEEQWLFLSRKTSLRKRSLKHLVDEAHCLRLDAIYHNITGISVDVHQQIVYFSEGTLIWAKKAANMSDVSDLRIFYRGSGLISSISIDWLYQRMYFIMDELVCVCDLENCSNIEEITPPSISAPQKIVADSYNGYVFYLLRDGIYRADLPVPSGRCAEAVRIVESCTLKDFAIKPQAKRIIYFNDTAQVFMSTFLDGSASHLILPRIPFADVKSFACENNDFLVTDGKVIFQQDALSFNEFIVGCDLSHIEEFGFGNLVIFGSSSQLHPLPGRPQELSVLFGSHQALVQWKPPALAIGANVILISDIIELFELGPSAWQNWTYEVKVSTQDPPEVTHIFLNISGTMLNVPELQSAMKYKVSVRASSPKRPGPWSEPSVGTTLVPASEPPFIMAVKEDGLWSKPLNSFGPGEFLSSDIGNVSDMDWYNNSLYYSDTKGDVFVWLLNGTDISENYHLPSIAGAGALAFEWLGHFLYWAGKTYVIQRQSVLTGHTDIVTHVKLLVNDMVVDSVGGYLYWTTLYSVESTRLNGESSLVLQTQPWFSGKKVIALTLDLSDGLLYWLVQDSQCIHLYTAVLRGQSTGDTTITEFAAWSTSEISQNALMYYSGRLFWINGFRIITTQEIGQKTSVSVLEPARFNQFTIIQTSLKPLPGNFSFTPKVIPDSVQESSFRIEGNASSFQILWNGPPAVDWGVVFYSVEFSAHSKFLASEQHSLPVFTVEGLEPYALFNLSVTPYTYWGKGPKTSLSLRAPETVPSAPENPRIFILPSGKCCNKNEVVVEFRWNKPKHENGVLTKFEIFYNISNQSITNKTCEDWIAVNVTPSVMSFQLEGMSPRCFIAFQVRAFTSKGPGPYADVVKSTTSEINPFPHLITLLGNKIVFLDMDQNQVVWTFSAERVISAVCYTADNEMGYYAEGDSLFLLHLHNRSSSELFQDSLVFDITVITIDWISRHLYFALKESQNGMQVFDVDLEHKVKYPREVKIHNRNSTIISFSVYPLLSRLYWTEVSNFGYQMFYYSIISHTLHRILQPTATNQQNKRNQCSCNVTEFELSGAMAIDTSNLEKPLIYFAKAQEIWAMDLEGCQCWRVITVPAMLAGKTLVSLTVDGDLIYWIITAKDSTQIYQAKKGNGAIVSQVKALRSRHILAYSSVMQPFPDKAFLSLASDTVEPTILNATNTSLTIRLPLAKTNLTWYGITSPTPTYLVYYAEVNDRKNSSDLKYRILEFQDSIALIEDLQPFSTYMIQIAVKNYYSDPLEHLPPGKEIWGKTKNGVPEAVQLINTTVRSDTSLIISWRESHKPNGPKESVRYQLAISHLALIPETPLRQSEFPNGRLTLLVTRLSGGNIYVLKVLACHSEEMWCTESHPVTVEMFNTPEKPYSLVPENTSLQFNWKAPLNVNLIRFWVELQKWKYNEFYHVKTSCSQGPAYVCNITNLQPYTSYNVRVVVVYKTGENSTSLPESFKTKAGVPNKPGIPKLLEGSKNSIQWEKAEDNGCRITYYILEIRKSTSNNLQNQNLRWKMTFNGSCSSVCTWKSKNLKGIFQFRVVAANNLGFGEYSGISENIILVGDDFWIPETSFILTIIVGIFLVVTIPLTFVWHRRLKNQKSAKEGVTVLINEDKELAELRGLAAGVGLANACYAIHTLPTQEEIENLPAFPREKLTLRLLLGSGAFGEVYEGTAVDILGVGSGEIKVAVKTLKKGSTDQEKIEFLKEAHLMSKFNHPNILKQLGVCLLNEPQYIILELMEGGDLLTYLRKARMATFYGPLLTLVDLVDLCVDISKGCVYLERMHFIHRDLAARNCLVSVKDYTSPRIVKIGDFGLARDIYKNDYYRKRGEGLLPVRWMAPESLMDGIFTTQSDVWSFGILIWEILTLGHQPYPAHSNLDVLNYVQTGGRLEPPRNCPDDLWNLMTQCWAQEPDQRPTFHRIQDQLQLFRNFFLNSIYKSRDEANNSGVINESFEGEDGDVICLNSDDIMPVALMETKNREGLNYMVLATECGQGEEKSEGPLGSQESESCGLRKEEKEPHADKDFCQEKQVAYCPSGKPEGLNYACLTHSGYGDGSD
T1 sequence (P00533 25-1210, species assumed): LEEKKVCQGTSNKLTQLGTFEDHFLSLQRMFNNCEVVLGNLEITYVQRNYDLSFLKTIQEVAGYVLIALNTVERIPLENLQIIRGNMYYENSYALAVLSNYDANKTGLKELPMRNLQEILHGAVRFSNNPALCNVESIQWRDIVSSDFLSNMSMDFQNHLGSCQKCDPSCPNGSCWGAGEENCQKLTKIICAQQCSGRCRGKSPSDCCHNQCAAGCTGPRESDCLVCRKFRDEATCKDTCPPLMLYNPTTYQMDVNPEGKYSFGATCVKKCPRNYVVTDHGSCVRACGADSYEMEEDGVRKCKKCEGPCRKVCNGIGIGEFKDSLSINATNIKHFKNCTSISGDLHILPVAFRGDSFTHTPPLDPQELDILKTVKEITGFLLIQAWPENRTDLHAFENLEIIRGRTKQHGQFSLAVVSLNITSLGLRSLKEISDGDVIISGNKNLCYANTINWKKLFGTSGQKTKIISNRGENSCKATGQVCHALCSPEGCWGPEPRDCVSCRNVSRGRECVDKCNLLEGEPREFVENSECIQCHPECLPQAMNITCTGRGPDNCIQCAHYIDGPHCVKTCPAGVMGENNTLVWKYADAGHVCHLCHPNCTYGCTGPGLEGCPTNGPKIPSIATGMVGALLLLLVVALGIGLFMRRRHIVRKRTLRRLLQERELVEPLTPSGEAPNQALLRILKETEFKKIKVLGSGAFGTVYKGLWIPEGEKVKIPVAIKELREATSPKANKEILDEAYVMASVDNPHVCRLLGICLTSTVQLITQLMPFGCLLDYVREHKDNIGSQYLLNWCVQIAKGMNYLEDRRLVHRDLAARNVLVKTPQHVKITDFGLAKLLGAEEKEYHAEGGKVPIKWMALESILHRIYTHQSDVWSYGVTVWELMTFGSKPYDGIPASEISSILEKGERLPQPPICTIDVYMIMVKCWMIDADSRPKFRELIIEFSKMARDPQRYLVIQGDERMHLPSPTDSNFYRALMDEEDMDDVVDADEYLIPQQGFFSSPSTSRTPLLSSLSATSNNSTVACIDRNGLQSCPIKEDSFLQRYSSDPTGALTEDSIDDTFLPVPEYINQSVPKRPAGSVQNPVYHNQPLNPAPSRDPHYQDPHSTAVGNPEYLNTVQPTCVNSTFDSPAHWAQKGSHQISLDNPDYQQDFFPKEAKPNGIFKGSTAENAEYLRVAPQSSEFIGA

O=C(c1ccc(Nc2ncc(Cl)c(Nc3ccc4ncsc4c3)n2)cc1)N1CCCCC1 [drawing 306]
IC50 (EGFR): > 5 µM | IC50 (ROS): 0.07 µM | inhibition at 5 µM (ROS): 87.9%

NC1CCN(C(=O)c2ccc(Nc3ncc(Cl)c(Nc4ccc5ncsc5c4)n3)cc2)CC1 [drawing 327]
IC50 (EGFR): > 5 µM | IC50 (ROS): 0.444 µM | inhibition at 5 µM (ROS): 100%

NC1CCN(C(=O)c2cccc(Nc3ncc(Cl)c(Nc4ccc5ncsc5c4)n3)c2)CC1 [drawing 332]
IC50 (EGFR): > 5 µM | IC50 (ROS): 0.165 µM | inhibition at 5 µM (ROS): 100%

O=C(O)c1cccc(Nc2ncc(Cl)c(Nc3ccc4ncsc4c3)n2)c1 [drawing 325]
IC50 (EGFR): > 5 µM | IC50 (ROS): 0.189 µM | inhibition at 5 µM (ROS): 100%

Clc1nccc(Nc2cc(C3CC3)[nH]n2)n1 [drawing 298]
IC50 (EGFR): > 50 µM | IC50 (ROS): 2.1 µM | inhibition at 5 µM (ROS): 38.4%

CN1CCN(C(=O)c2cccc(Nc3ncc(Cl)c(Nc4ccc5ncsc5c4)n3)c2)CC1 [drawing 329]
IC50 (EGFR): > 5 µM | IC50 (ROS): 0.33 µM | inhibition at 5 µM (ROS): 100%

O=C(c1cccc(Nc2ncc(Cl)c(Nc3ccc4ncsc4c3)n2)c1)N1CCCCC1 [drawing 328]
IC50 (EGFR): > 5 µM | IC50 (ROS): 0.24 µM | inhibition at 5 µM (ROS): 100%

CC(C)(C)OC(=O)NC1CCN(C(=O)c2ccc(Nc3ncc(Cl)c(Nc4ccc5ncsc5c4)n3)cc2)CC1 [drawing 309]
IC50 (EGFR): > 5 µM | IC50 (ROS): > 5 µM | inhibition at 5 µM (ROS): 29.4%

C1=C(c2cccc(Nc3nccc(Nc4ccc5ncsc5c4)n3)c2)CCNC1 [drawing 304]
IC50 (EGFR): > 5 µM | IC50 (ROS): 0.041 µM | inhibition at 5 µM (ROS): 101%

Nc1ccc(Nc2nccc(Nc3cc(C4CC4)[nH]n3)n2)cc1 [drawing 299]
IC50 (EGFR): 18.9 µM | IC50 (ROS): 0.045 µM | inhibition at 5 µM (ROS): 100%

O=C(NCC1CCNCC1)c1ccc(Nc2ncc(Cl)c(Nc3ccc4ncsc4c3)n2)cc1 [drawing 331]
IC50 (EGFR): > 5 µM | IC50 (ROS): 1.01 µM | inhibition at 5 µM (ROS): 100%

c1cc(Nc2nccc(Nc3ccc4ncsc4c3)n2)cc(C2CCNCC2)c1 [drawing 303]
IC50 (EGFR): 4.6 µM | IC50 (ROS): 0.042 µM | inhibition at 5 µM (ROS): 100%

CN1CCN(C(=O)c2ccc(Nc3ncc(Cl)c(Nc4ccc5ncsc5c4)n3)cc2)CC1 [drawing 307]
IC50 (EGFR): > 5 µM | IC50 (ROS): 0.405 µM | inhibition at 5 µM (ROS): 92.2%

COc1ccccc1-c1cc(C(F)F)n2ncc(C(=O)NCc3cccnc3)c2n1 [drawing 361]
EC50 [1]: 22 µM | EC50 [2]: 16 µM | EC50 [3]: > 100 µM | EC50 [4]: > 100 µM | EC50 [5]: > 100 µM

NC(=O)c1c(NC(=O)[C@H]2CC(=O)N(c3ccccc3)C2)sc2c1CCCC2 [drawing 356]
EC50 [1]: > 100 µM | EC50 [2]: > 100 µM | EC50 [3]: > 100 µM | EC50 [4]: > 100 µM | EC50 [5]: > 100 µM

O=C(NCC1CCNCC1)c1cccc(Nc2ncc(Cl)c(Nc3ccc4ncsc4c3)n2)c1 [drawing 334]
IC50 (EGFR): > 5 µM | IC50 (ROS): 0.38 µM | inhibition at 5 µM (ROS): 100%

C[C@@H](Oc1cc(-c2cnn(C3CCNCC3)c2)cnc1N)c1c(Cl)ccc(F)c1Cl [drawing 491]
EC50 [1]: 12 µM | EC50 [2]: 20 µM | EC50 [3]: 13 µM | EC50 [4]: 15 µM | EC50 [5]: 11.9 µM

Cc1cccc(Nc2nccc(Nc3cccc(C(=O)Nc4ccc(F)cc4)c3)n2)c1 [drawing 382]
EC50 [1]: 27 µM | EC50 [2]: 6 µM | EC50 [3]: 30 µM | EC50 [4]: 14 µM | EC50 [5]: 75 µM

O=C(NNc1nc2ccccc2nc1Cc1ccccc1)c1cccc(Cl)c1 [drawing 366]
EC50 [1]: 25 µM | EC50 [2]: 22 µM | EC50 [3]: > 100 µM | EC50 [4]: > 100 µM | EC50 [5]: > 100 µM

Nc1ccc(Nc2nccc(Nc3cc(C4CC4)[nH]n3)n2)cc1 [drawing 436]
EC50 [1]: 5 µM | EC50 [2]: 10 µM | EC50 [3]: 30 µM | EC50 [4]: 0.4 µM | EC50 [5]: 1.9 µM

O=C(c1cccc(-c2noc(-c3n[nH]c4c3CCCC4)n2)c1)N1CCCCC1 [drawing 385]
EC50 [1]: 14 µM | EC50 [2]: 62 µM | EC50 [3]: 83 µM | EC50 [4]: > 100 µM | EC50 [5]: 83 µM
